Data taken from ChEMBL document CHEMBL3774387, “Synthesis and anticancer evaluation of spermatinamine analogues” (Bioorg Med Chem Lett, 2016).

Assays:
MCF7 [1] = assay: Cytotoxicity against human MCF7 cells assessed as viable cells after 48 hrs by MTT assay; format: functional, cell-based; details: MCF7, 48 h
[2] = Cytotoxicity against human DU145 cells assessed as viable cells after 48 hrs by MTT assay; format: functional, cell-based; details: DU-145, 48 h
HeLa [3] = assay: Cytotoxicity against human HeLa cells assessed as viable cells after 48 hrs by MTT assay; format: functional, cell-based
MCF7 [4] = assay: Cytotoxicity against human MCF7 cells assessed as viable cells after 24 hrs by MTT assay; format: functional, cell-based; details: MCF7, 24 h
HeLa [5] = assay: Cytotoxicity against human HeLa cells assessed as viable cells after 24 hrs by MTT assay; format: functional, cell-based
[6] = Cytotoxicity against human DU145 cells assessed as viable cells after 24 hrs by MTT assay; format: functional, cell-based; details: DU-145, 24 h
[7] = Cytotoxicity against human DU145 cells assessed as growth inhibition at 25 uM after 24 hrs by MTT assay (reference value: 1.2 to 7.8%); format: functional; details: DU-145, 24 h, read-out: GI
MCF7 [8] = assay: Cytotoxicity against human MCF7 cells assessed as growth inhibition at 2.5 uM after 24 hrs by MTT assay (reference value: 2.7 to 9.3%); format: functional; details: MCF7, 24 h, read-out: GI
[9] = Cytotoxicity against human DU145 cells assessed as growth inhibition at 100 uM after 24 hrs by MTT assay (reference value: 1.2 to 7.8%); format: functional; details: DU-145, 24 h, read-out: GI
MCF7 [10] = assay: Cytotoxicity against human MCF7 cells assessed as growth inhibition at 50 uM after 24 hrs by MTT assay (reference value: 2.7 to 9.3%); format: functional; details: MCF7, 24 h, read-out: GI
MCF7 [11] = assay: Cytotoxicity against human MCF7 cells assessed as growth inhibition at 1.25 uM after 24 hrs by MTT assay (reference value: 2.7 to 9.3%); format: functional; details: MCF7, 24 h, read-out: GI
HeLa [12] = assay: Cytotoxicity against human HeLa cells assessed as growth inhibition at 10 uM after 24 hrs by MTT assay (reference value: 0 to 4.4%); format: functional; details: read-out: GI
HeLa [13] = assay: Cytotoxicity against human HeLa cells assessed as growth inhibition at 2.5 uM after 24 hrs by MTT assay (reference value: 0 to 4.4%); format: functional; details: read-out: GI
[14] = Cytotoxicity against human DU145 cells assessed as growth inhibition at 50 uM after 24 hrs by MTT assay (reference value: 1.2 to 7.8%); format: functional; details: DU-145, 24 h, read-out: GI
MCF7 [15] = assay: Cytotoxicity against human MCF7 cells assessed as growth inhibition at 10 uM after 24 hrs by MTT assay (reference value: 2.7 to 9.3%); format: functional; details: MCF7, 24 h, read-out: GI
MCF7 [16] = assay: Cytotoxicity against human MCF7 cells assessed as growth inhibition at 25 uM after 24 hrs by MTT assay (reference value: 2.7 to 9.3%); format: functional; details: MCF7, 24 h, read-out: GI
MCF7 [17] = assay: Cytotoxicity against human MCF7 cells assessed as growth inhibition at 5 uM after 24 hrs by MTT assay (reference value: 2.7 to 9.3%); format: functional; details: MCF7, 24 h, read-out: GI
HeLa [18] = assay: Cytotoxicity against human HeLa cells assessed as growth inhibition at 100 uM after 24 hrs by MTT assay (reference value: 0 to 4.4%); format: functional; details: read-out: GI
[19] = Cytotoxicity against human DU145 cells assessed as growth inhibition at 5 uM after 24 hrs by MTT assay (reference value: 1.2 to 7.8%); format: functional; details: DU-145, 24 h, read-out: GI
HeLa [20] = assay: Cytotoxicity against human HeLa cells assessed as growth inhibition at 50 uM after 24 hrs by MTT assay (reference value: 0 to 4.4%); format: functional; details: read-out: GI
[21] = Cytotoxicity against human DU145 cells assessed as growth inhibition at 2.5 uM after 24 hrs by MTT assay (reference value: 1.2 to 7.8%); format: functional; details: DU-145, 24 h, read-out: GI
HeLa [22] = assay: Cytotoxicity against human HeLa cells assessed as growth inhibition at 5 uM after 24 hrs by MTT assay (reference value: 0 to 4.4%); format: functional; details: read-out: GI
[23] = Cytotoxicity against human DU145 cells assessed as growth inhibition at 10 uM after 24 hrs by MTT assay (reference value: 1.2 to 7.8%); format: functional; details: DU-145, 24 h, read-out: GI
HeLa [24] = assay: Cytotoxicity against human HeLa cells assessed as growth inhibition at 1.25 uM after 24 hrs by MTT assay (reference value: 0 to 4.4%); format: functional; details: read-out: GI
[25] = Cytotoxicity against human DU145 cells assessed as growth inhibition at 1.25 uM after 24 hrs by MTT assay (reference value: 1.2 to 7.8%); format: functional; details: DU-145, 24 h, read-out: GI
MCF7 [26] = assay: Cytotoxicity against human MCF7 cells assessed as growth inhibition at 100 uM after 24 hrs by MTT assay (reference value: 2.7 to 9.3%); format: functional; details: MCF7, 24 h, read-out: GI
HeLa [27] = assay: Cytotoxicity against human HeLa cells assessed as growth inhibition at 25 uM after 24 hrs by MTT assay (reference value: 0 to 4.4%); format: functional; details: read-out: GI

CO/N=C(\Cc1cc(Br)c(OC)c(Br)c1)C(=O)NCCCCCNC(=O)/C(Cc1cc(Br)c(OC)c(Br)c1)=N/OC
IC50 (MCF7 [1]): > 100 µM | IC50 [2]: > 100 µM | IC50 (HeLa [3]): > 100 µM | IC50 (MCF7 [4]): > 100 µM | IC50 (HeLa [5]): > 100 µM | IC50 [6]: > 100 µM

COc1c(Br)cc(C/C(=N\OCc2ccccc2)C(=O)NCCCCCNC(=O)/C(Cc2cc(Br)c(OC)c(Br)c2)=N/OCc2ccccc2)cc1Br
IC50 (MCF7 [1]): > 100 µM | IC50 [2]: > 100 µM | IC50 (HeLa [3]): > 100 µM | IC50 (MCF7 [4]): > 100 µM | IC50 (HeLa [5]): > 100 µM | IC50 [6]: > 100 µM

COc1c(Br)cc(C/C(=N\OCc2ccccc2)C(=O)NCCCNCCCCNCCCNC(=O)/C(Cc2cc(Br)c(OC)c(Br)c2)=N/OCc2ccccc2)cc1Br
inhibition of growth at 25 µM [7]: 98.6% | inhibition of growth at 2.5 µM (MCF7 [8]): 30% | IC50 (MCF7 [1]): 3.4 µM | inhibition of growth at 100 µM [9]: 97.3% | inhibition of growth at 50 µM (MCF7 [10]): 97.7% | IC50 [2]: 4.6 µM | inhibition of growth at 1.25 µM (MCF7 [11]): 19.2% | inhibition of growth at 10 µM (HeLa [12]): 98.3% | inhibition of growth at 2.5 µM (HeLa [13]): 23.5% | inhibition of growth at 50 µM [14]: 98.4% | inhibition of growth at 10 µM (MCF7 [15]): 98.9% | inhibition of growth at 25 µM (MCF7 [16]): 97.6% | inhibition of growth at 5 µM (MCF7 [17]): 58.6% | inhibition of growth at 100 µM (HeLa [18]): 94.7% | inhibition of growth at 5 µM [19]: 68.2% | inhibition of growth at 50 µM (HeLa [20]): 96.9% | inhibition of growth at 2.5 µM [21]: 24.4% | IC50 (HeLa [3]): 2.9 µM | inhibition of growth at 5 µM (HeLa [22]): 93.5% | inhibition of growth at 10 µM [23]: 98.5% | IC50 (MCF7 [4]): 4.5 µM | IC50 (HeLa [5]): 4 µM | inhibition of growth at 1.25 µM (HeLa [24]): 0% | inhibition of growth at 1.25 µM [25]: 15.5% | inhibition of growth at 100 µM (MCF7 [26]): 96.4% | IC50 [6]: 4 µM

COc1c(Br)cc(C/C(=N\OCc2ccccc2)C(=O)NCCNCCNC(=O)/C(Cc2cc(Br)c(OC)c(Br)c2)=N/OCc2ccccc2)cc1Br
IC50 (MCF7 [1]): > 100 µM | IC50 [2]: > 100 µM | IC50 (HeLa [3]): > 100 µM | IC50 (MCF7 [4]): > 100 µM | IC50 (HeLa [5]): > 100 µM | IC50 [6]: > 100 µM

CO/N=C(\Cc1cc(Br)c(OC)c(Br)c1)C(=O)NCCNCCNC(=O)/C(Cc1cc(Br)c(OC)c(Br)c1)=N/OC
inhibition of growth at 25 µM [7]: 26.7% | inhibition of growth at 2.5 µM (MCF7 [8]): 23.9% | IC50 (MCF7 [1]): 30.9 µM | inhibition of growth at 100 µM [9]: 95.6% | inhibition of growth at 50 µM (MCF7 [10]): 96.9% | IC50 [2]: 27.9 µM | inhibition of growth at 1.25 µM (MCF7 [11]): 11.4% | inhibition of growth at 10 µM (HeLa [12]): 24.5% | inhibition of growth at 2.5 µM (HeLa [13]): 4.8% | inhibition of growth at 50 µM [14]: 99% | inhibition of growth at 10 µM (MCF7 [15]): 23% | inhibition of growth at 25 µM (HeLa [27]): 80.1% | inhibition of growth at 25 µM (MCF7 [16]): 46.2% | inhibition of growth at 5 µM (MCF7 [17]): 20.3% | inhibition of growth at 100 µM (HeLa [18]): 97.1% | inhibition of growth at 5 µM [19]: 22.1% | inhibition of growth at 50 µM (HeLa [20]): 95% | inhibition of growth at 2.5 µM [21]: 21.3% | IC50 (HeLa [3]): 10.8 µM | inhibition of growth at 5 µM (HeLa [22]): 0.1% | inhibition of growth at 10 µM [23]: 20.2% | IC50 (MCF7 [4]): 27.1 µM | IC50 (HeLa [5]): 25.8 µM | inhibition of growth at 1.25 µM (HeLa [24]): 11% | inhibition of growth at 1.25 µM [25]: 19.9% | inhibition of growth at 100 µM (MCF7 [26]): 96.9% | IC50 [6]: 25.8 µM
